Experimental data from paper PMC8012331, “Drug-induced hepatic steatosis in absence of severe mitochondrial dysfunction in HepaRG cells: proof of multiple mechanism-based toxicity” (Cell Biology and Toxicology, 2020).
Where “and” joins values, the source holds several entries; their conditions need not be identical. Identical values can stand only once. Entries after “also recorded” stand apart in the source; their conditions may differ. Like-named read-outs stand apart in the source and are kept apart here. One block for each molecule: values may come before it.

Legend:
[1] = test system: isolated mouse liver mitochondria; assay: Oxygen consumption of isolated mouse liver mitochondria; format: biochemical; details: state 3
Method: For all aforementioned substrates, measurements were performed in parallel without or with 2 μM rotenone in order to calculate (EC20), as previously mentioned. Oxygen consumption was measured in real-time for 60 min at 37 °C in 96-well plates using a spectrofluorometer (Tecan Infinite® 200; λExcitation 380 nm; λEmission 650 nm). The slope of fluorescence increase, corresponding to the rate of oxygen consumption, was used for calculations. EC20 was thus assessed as previously described by compiling the percentage of inhibition obtained from 4 to 12 experiments.

[2] = test system: primary human hepatocytes (PHH); assay: Neutral lipids with Nile red in primary human hepatocytes; format: cell-based; details: 4 days
Method: Primary human hepatocytes (PHH) were purchased from Biopredic International (Saint-Grégoire, France). Cells were seeded by the supplier in coated 96-well plates at a density of 5 × 10^4 cells/well. Upon receipt, culture medium was removed and replaced by William’s E medium supplemented as previously described for HepaRG cell differentiation, except for DMSO set at 1%. After 2–3 days, cells were treated as for HepaRG cells. For HepaRG cells and PHH, cells were always maintained in incubators at 37 °C with 5% CO2 and saturating humidity.
Cells were then incubated with PBS containing 0.1 μg/mL Nile red for 30 min and washed once. […] For each well, four pictures were taken at a magnification of × 20 and analyzed with Columbus software (PerkinElmer) for quantification. These pictures were always taken in four different areas around the center of each well, and these areas were the same from one well to another, as programmed by the Columbus software. This software was also designed to count only living cells after exclusion of dying cells harboring nuclei with abnormal shape or altered Hoechst intensity. […] Neutral lipids were then normalized per number of nuclei and expressed relative to control cells. Examples of images used for neutral lipid quantification are shown in Supplementary Fig. 2.

apoB secretion = assay: apoB level in culture medium (ELISA), HepaRG cells; format: cell-based, human; details: 4 days, culture medium, vs control
[3] = test system: mitochondrial fatty acid oxidation (mtFAO); assay: mtFAO with [U-14C]palmitic acid in HepaRG cells; format: cell-based, human; details: 4 days, vs control
Method: Experiments were carried out on passages 9 to 16. […] DPEN was dissolved in water.
Results were normalized to total protein content determined using the Pierce BCA assay kit from Thermo Fischer Scientific (Waltham, MA). Results were expressed in comparison to control cells.

[4] = treated patients, ref Schulz M et al., Crit Care 2012 ;16(4):R136, cited from earlier work
IRE1α = assay: Western blot total IRE1α in HepaRG cells; format: cell-based, human
Method: Cells were lysed in ice-cold CelLytic M buffer (C2978; Sigma Aldrich) containing phosphatase and protease inhibitors from Roche Applied Science (Penzberg, Germany). Protein concentration was determined using the Pierce BCA Protein Assay Kit (Thermo Fisher Scientific) and equal amounts of protein were diluted with NuPAGE LDS Sample Buffer (Thermo Fisher Scientific). Samples (ca. 25 μg of proteins) were then separated by SDS-PAGE using NuPAGE 4–12% Bis-Tris gels (Thermo Fisher Scientific). Proteins were transferred to PVDF membranes (BioRad) and Ponceau S staining was used to confirm equal loading and transfer. Membranes were blocked in 7.5% milk in TBST (10 mM Tris–HCl, 100 mM NaCl, 0.02% Tween 20) for 1 h at room temperature and incubated overnight at 4 °C with antibodies against phospho-IRE1α (Ser724) (Abcam, ab124945), IRE1α (Cell Signaling, 3294), or HSC70 (Santa Cruz, sc-7298), whose dilutions were 1:1000. […] Protein content was quantified by densitometry with ImageJ software (National Institutes of Health, Bethesda, MD).

ATP citrate lyase (ACLY) = assay: RT-qPCR ACLY mRNA in HepaRG cells; format: cell-based, human; details: 4 days, vs control
Method: (§1) Total RNA was extracted with the Nucleospin RNA isolation system purchased from Macherey-Nagel (Düren, Germany), which included a DNase treatment step. Quantification of isolated RNAs was assessed using a Nanodrop 1000 (Thermo Fisher Scientific, Waltham, MA). RNAs were reverse-transcribed into cDNAs using the High-Capacity cDNA Reverse Transcription Kit purchased from Applied Biosystems (Woolston, UK). Gene expression was assessed by real-time quantitative PCR analysis (RT-qPCR) using SYBR Green PCR Master Mix (Applied Biosystems) and a 384-well QuantStudio™ 7 Flex Real-Time PCR System (Thermo Fisher Scientific). Sequences of the primers used to measure gene expression are presented in Supplementary Table 3. Expression of GAPDH was chosen as reference and the 2^−ΔΔCt calculation method was used to express the relative expression of each selected gene.

[5] = test system: stearoyl-CoA desaturase 1 (hSCD1); assay: RT-qPCR hSCD1 mRNA in HepaRG cells; format: cell-based, human; details: 4 days, vs control
Method: as §1

[6] = test system: acetyl-CoA carboxylase alpha (ACACA); assay: RT-qPCR ACACA mRNA in HepaRG cells; format: cell-based, human; details: 4 days, vs control
Method: as §1

[7] = test system: fatty acid synthase (FASN); assay: RT-qPCR FASN mRNA in HepaRG cells; format: cell-based, human; details: 4 days, vs control
Method: as §1

EC20 for inhibition of O2 consumption, palmitoyl-coenzyme A + L-carnitine [1]: 20 ± 4 µM
Steatosis in PHH batches (six batches tested) [2]: induced steatosis in only one PHH batch
Compound: CO[C@H]1/C=C/O[C@@]2(C)Oc3c(C)c(O)c4c(O)c(c(/C=N/N5CCN(C)CC5)c(O)c4c3C2=O)NC(=O)/C(C)=C\C=C\[C@H](C)[C@H](O)[C@@H](C)[C@@H](O)[C@@H](C)[C@H](OC(C)=O)[C@@H]1C [RIF, rifampicin]
EC20 for inhibition of O2 consumption, glutamate/malate [1]: 34 ± 12 µM
EC20 for inhibition of O2 consumption, octanoyl-L-carnitine [1]: 17 ± 2 µM
EC20 for inhibition of O2 consumption, palmitoyl-L-carnitine [1]: 16 ± 3 µM
Effect on apoB secretion (apoB secretion): reduced the secretion
Effect on mtFAO [3]: inhibited this metabolic pathway; also recorded: moderate
Therapeutic blood (or plasma) concentration in patients ([4]; listed as Rifampicin (RIF)): 0.1 - 10 mg/L and 0.12 - 12.2 µM
Protein level of total IRE1α (IRE1α): increased protein level

Steatosis in PHH batches (six batches tested) [2]: steatotic in two PHH batches
Compound: COc1ccc2c(c1)c(CC(=O)O)c(C)n2C(=O)c1ccc(Cl)cc1 [INDO, indomethacin]
ACLY mRNA level (ATP citrate lyase (ACLY)): augmented mRNA abundance
hSCD1 mRNA level [5]: also increased hSCD1 mRNA level
Effect on apoB secretion (apoB secretion): reduced the secretion
ACACA mRNA level [6]: augmented mRNA abundance
Effect on mtFAO [3]: inhibited this metabolic pathway and mild
Therapeutic blood (or plasma) concentration in patients ([4]; listed as Indomethacin (INDO)): 0.3 - 1 mg/L and 0.83 - 2.8 µM
FASN mRNA level [7]: augmented mRNA abundance
Protein level of total IRE1α (IRE1α): increased protein level
